From PubChem BioAssay (NCI)
Where “and” joins values, the source holds several entries; their conditions need not be identical. Identical values can stand only once.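 In this assay, cells in 96-well plates receive the compound at five concentrations for 48 hours. Endpoints are linearly interpolated between the surrounding concentrations. GI50: concentration for 50% inhibition of growth. TGI: total growth inhibition.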

Tested on: MDA-MB-468 breast
Assay: NCI anticancer screen, dose series, 48 h

SMILES	GI50	TGI
COc1ccc(CN2C(=O)/C(=C\C(=O)c3ccc(OCCN4CCCC4)cc3)c3ccccc32)cc1	2.07 µM	4.57 µM
COc1cc(N2CCN(C(C)C)CC2)ccc1Nc1nc(Nc2ccc(F)cc2C(=O)NCC(O)CO)c2cc[nH]c2n1 (centres undefined)	4.46 µM	20.5 µM
COc1ccc(C(C)=C(c2ccc(OCCN(C)C)cc2)c2ccc(OCCN(C)C)cc2)cc1	0.489 µM	1.44 µM
COc1ccc(/C(=C/c2ccc3ccccc3c2)c2nn[nH]n2)cc1OC	21.5 µM	> 100 µM
CC[C@@]1(O)C(=O)OCc2c1cc1n(c2=O)Cc2cc3c(CN(C)C)c(O)ccc3nc2-1	< 0.01 µM and 0.0234 µM	0.0426 µM and 0.108 µM
O=C(NCCCl)NCCN1c2nc3ccccc3cc2Sc2cc3ccccc3nc21	1.43 µM	5.42 µM
Nc1c(C(=O)c2ccc(C#CCN3CCOCC3)cc2)cnn1-c1ccc(F)cc1	> 25 µM	> 25 µM
CN1CCN(Cc2ccc(NC(=O)c3cncc(C#Cc4c(N)ncc5c(F)cccc45)c3)cc2C(F)(F)F)CC1	0.872 µM	1.69 µM
CN(C)c1ccc(/C=C(\C#N)c2ccccc2)cc1	0.34 µM and 0.293 µM and 0.728 µM	–
O=c1c2cccc(F)c2sc2c(NCCCNCCO)nc3ccccc3c12	1.63 µM	3.26 µM
FC(F)(F)c1cc(Br)cc(-c2cc(-c3ccc4c(c3)OCCO4)[nH]n2)c1	0.345 µM	> 100 µM
COc1ccc(C2CC(c3ccccc3)=NN2C(=O)c2cc(OC)c(OC)c(OC)c2)cc1O (centres undefined)	0.223 µM	0.613 µM
Cc1cncc(-c2nc(NCCc3c[nH]c4ccccc34)c3ncn(C(C)C)c3n2)c1	3.02 µM	10.9 µM
CCOC(=O)Nc1ccc2nc(N3CCCCCC3)sc2c1	0.391 µM	3.11 µM
CCCCOC(=O)/C=C\C(=O)NC(N)=O	4.29 µM	19.4 µM
CCC1=C[C@@H]2CN(C1)Cc1c([nH]c3ccccc13)[C@@](C(=O)OC)(c1cc3c(cc1OC)N(C)[C@H]1[C@@](O)(C(=O)OC)[C@H](OC(C)=O)[C@]4(CC)C=CCN5CC[C@]31[C@@H]54)C2	< 0.01 µM	17 µM
O=C(COc1cccc(/C=C2\COc3ccccc3C2=O)c1)c1ccccc1	1.78 µM	4.6 µM
CCN(CC)c1ccc2c(c1)Oc1nc(N)c(C#N)c(N)c1C2Sc1ccc(F)cc1 (centres undefined)	1.61 µM	3.13 µM
NC(=O)c1cc(I)ccc1NC(=O)/C=C/c1ccccc1Cl	0.374 µM	7.67 µM
Nc1nc(=S)c2ncn(C3OC(CO)C(O)C3O)c2[nH]1 (centres undefined)	0.253 µM	1.69 µM
COc1cc(-c2cc(-c3cccs3)c(C#N)c(N3CCOCC3)n2)cc(OC)c1OC	1.99 µM	7.06 µM
O=C(O)c1ccc(NCc2nc3ccccc3[nH]2)cc1	> 100 µM	> 100 µM
O=C(Nc1ccc(Oc2ccc(NC(=O)Nc3ccccc3Cl)cc2)cc1)Nc1ccccc1Cl	11 µM	49.6 µM
C[C@@H](Oc1ccc(Oc2cnc3ccc(Cl)cc3n2)cc1)C(=O)O	39.9 µM	> 100 µM
O=C(/C=C/c1ccco1)Nc1ncc(Cc2cccc(C(F)(F)F)c2)s1	0.111 µM	6.93 µM
